Source: US20250051694A1, “BAR COMPOSITION HAVING ENHANCED ANTIMICROBIAL ACTIVITY” (Conopco, Inc., d/b/a UNILEVER, priority 2021, published 2025)

System: S. aureus ATCC 6538
Test: Time-kill assay (adapted from ASTM E2315-16), Gram positive
Type: cell-based
Details: Table II, simulated 10% slurry
Procedure: Aqueous slurries were prepared whereby gratings from the bars made in the Samples of Table I were mixed with water to form a test solution containing 10% by weight of the initial bar component. In the second method, raw bar components, as depicted in the Samples in Table II, were mixed with water to form a test solution containing a total of 10% raw bar component to simulate an aqueous slurry of a bar composition. For each sample, aqueous slurries were mixed at 50° C. to simulate customary consumer washing conditions.
As to the microbes, E. coli ATCC 10536 and S. aureus ATCC 6538 were used in this study to represent Gram negative and Gram positive bacteria, respectively. The bacteria were stored at −80° C. Fresh isolates were cultured twice on Tryptic Soy Agar plates for 24 hours at 37° C. before each experiment.
Test solutions were prepared. In the first method and for the aqueous slurries made from the bar compositions described in Table I, a composition (typically containing up to 15% surfactant) was mixed with water to form a test solution containing 10% weight percent of the initial formulation. In the second method and for the raw ingredients combined in Table II, the same were mixed with water at levels that simulate a 10% dilution of the slurries. In each assessment, test solutions were heated and mixed at […]
The log reduction was calculated using the formula: […]

SMILES: CC(O)C(=O)O (stereo not shown) [lactic acid]
- S. aureus Log Reduction (46° C., 30 sec): performed poorly
